Target: TrkA (Homo sapiens (Human), UniProt P04629)
Experiment: TrkA Omnia Assay
Assay type: biochemical
Conditions: averaged IC50; 20 nM enzyme, 500 μM ATP, 10 μM peptide substrate
Outline: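 Recombinant TrkA (20 nM) preincubated 10 min at ambient temperature with compound, then Omnia Tyr Peptide #4 (10 μM) and ATP (500 μM) added in 25 mM MOPS pH 7.5, 5 mM MgCl2, 0.005% Triton X-100. Fluorescence (ex 360/em 485 nm) followed continuously for 70 min; IC50 from initial rates by 4- or 5-parameter logistic fit.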

TrkA, sequence (P04629 33-796): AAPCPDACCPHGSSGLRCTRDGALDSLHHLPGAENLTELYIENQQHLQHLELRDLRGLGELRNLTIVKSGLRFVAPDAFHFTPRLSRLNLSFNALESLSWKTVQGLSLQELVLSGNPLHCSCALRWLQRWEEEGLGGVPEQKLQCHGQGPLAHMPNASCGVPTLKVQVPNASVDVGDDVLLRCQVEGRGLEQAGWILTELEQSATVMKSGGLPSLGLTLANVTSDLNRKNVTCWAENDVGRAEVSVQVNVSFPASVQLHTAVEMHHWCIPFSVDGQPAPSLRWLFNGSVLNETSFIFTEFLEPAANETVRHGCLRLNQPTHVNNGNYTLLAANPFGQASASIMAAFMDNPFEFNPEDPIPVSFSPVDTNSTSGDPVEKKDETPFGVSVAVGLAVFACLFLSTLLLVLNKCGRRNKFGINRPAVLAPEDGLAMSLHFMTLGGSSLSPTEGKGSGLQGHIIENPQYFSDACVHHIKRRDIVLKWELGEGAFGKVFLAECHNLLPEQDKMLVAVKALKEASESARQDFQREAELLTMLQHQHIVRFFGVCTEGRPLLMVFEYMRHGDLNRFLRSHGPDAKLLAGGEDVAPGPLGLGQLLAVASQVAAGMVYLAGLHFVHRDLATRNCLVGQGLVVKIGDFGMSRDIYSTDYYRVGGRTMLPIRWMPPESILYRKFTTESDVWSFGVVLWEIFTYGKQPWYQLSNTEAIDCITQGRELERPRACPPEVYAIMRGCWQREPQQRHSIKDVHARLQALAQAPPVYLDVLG

SMILES | IC50
COCCN1C[C@@H](NC(=O)Nc2c(Br)c(-c3ccccc3)nn2-c2ccccc2)[C@H](c2cc(F)cc(F)c2)C1 [Example 427, 1-(4-bromo-1,3-diphenyl-1H-pyrazol-5-yl)-3-((3S,4R)-4-(3,5-difluorophenyl)-1-(2-methoxyethyl)pyrrolidin-3-yl)urea] | < 100 nM
COCCN1C[C@@H](NC(=O)Nc2c(Br)c(-c3ccccc3)nn2-c2ccccc2)[C@H](c2ccc(F)cc2)C1 [Example 428, 1-(4-bromo-1,3-diphenyl-1H-pyrazol-5-yl)-3-((3S,4R)-4-(4-fluorophenyl)-1-(2-methoxyethyl)pyrrolidin-3-yl)urea] | < 100 nM
COCCN1C[C@@H](NC(=O)Nc2c(F)c(-c3cnn(C)c3)nn2-c2ccccc2)[C@H](c2cncc(F)c2)C1 [Example 432, 1-(4-fluoro-1′-methyl-1-phenyl-1H,1′H-[3,4′-bipyrazol]-5-yl)-3-((3S,4R)-4-(5-fluoropyridin-3-yl)-1-(2-methoxyethyl)pyrrolidin-3-yl)urea] | 100 to 1000 nM
COCCN1C[C@@H](NC(=O)Nc2c(Br)c(C)nn2-c2ccccc2)[C@H](c2cncc(F)c2)C1 [Example 433] | < 100 nM
COCCN1C[C@@H](NC(=O)Nc2c(Cl)c(C)nn2-c2ccccc2)[C@H](c2cncc(F)c2)C1 [Example 434] | < 100 nM
COCCN1C[C@@H](NC(=O)Nc2c(F)c(-c3cnn(C)c3)nn2-c2ccccc2)[C@H](c2ccc(F)c(F)c2)C1 [Example 438, 1-((3S,4R)-4-(3,4-difluorophenyl)-1-(2-methoxyethyl)pyrrolidin-3-yl)-3-(4-fluoro-1′-methyl-1-phenyl-1H,1′H-[3,4′-bipyrazol]-5-yl)urea] | < 100 nM
COCCN1C[C@@H](NC(=O)Nc2c(F)c(-c3cnn(C)c3)nn2-c2ccccc2)[C@H](c2cc(F)cc(F)c2)C1 [Example 439, 1-((3S,4R)-4-(3,5-difluorophenyl)-1-(2-methoxyethyl)pyrrolidin-3-yl)-3-(4-fluoro-1′-methyl-1-phenyl-1H,1′H-[3,4′-bipyrazol]-5-yl)urea] | < 100 nM
COCCN1C[C@@H](NC(=O)Nc2c(Br)c(-c3cnn(C)c3)nn2-c2ccccc2)[C@H](c2cncc(F)c2)C1 [Example 440, 1-(4-bromo-1′-methyl-1-phenyl-1H,1′H-[3,4′-bipyrazol]-5-yl)-3-((3S,4R)-4-(5-fluoropyridin-3-yl)-1-(2-methoxyethyl)pyrrolidin-3-yl)urea] | < 100 nM
COCCN1C[C@@H](NC(=O)Nc2c(C)c(-c3cnn(C)c3)nn2-c2ccccc2)[C@H](c2ccc(F)cc2)C1 [Example 441, 1-(1′,4-dimethyl-1-phenyl-1H, 1′H-[3,4′-bipyrazol]-5-yl)-3-((3S,4R)-4-(4-fluorophenyl)-1-(2-methoxyethyl)pyrrolidin-3-yl)urea] | < 100 nM
COCCN1C[C@@H](NC(=O)Nc2c(C)c(-c3cnn(C)c3)nn2-c2ccccc2)[C@H](c2cc(F)cc(F)c2)C1 [Example 442, 1-(1′,4-dimethyl-1-phenyl-1H, 1′H-[3,4′-bipyrazol]-5-yl)-3-((3S,4R)-4-(3,5-difluorophenyl)-1-(2-methoxyethyl)pyrrolidin-3-yl)urea] | < 100 nM
COCCN1C[C@@H](NC(=O)Nc2c(C)c(-c3cnn(C)c3)nn2-c2ccccc2)[C@H](c2cc(F)c(F)c(F)c2)C1 [Example 443, 1-(1′,4-dimethyl-1-phenyl-1H, 1′H-[3,4′-bipyrazol]-5-yl)-3-((3S,4R)-4-(3,4,5-trifluorophenyl)-1-(2-methoxyethyl)pyrrolidin-3-yl)urea] | < 100 nM
COCCN1C[C@@H](NC(=O)Nc2c(C)c(-c3cnn(Cc4ccc(OC)cc4)c3)nn2-c2ccccc2)[C@H](c2ccc(F)c(F)c2)C1 [Example 446, 1-((3S,4R)-4-(3,4-difluorophenyl)-1-(2-methoxyethyl)pyrrolidin-3-yl)-3-(1′-(4-methoxybenzyl)-4-methyl-1-phenyl-1H, 1′H-[3,4′-bipyrazol]-5-yl)urea] | < 100 nM
COCCN1C[C@@H](NC(=O)Nc2c(C)c(-c3cn[nH]c3)nn2-c2ccccc2)[C@H](c2ccc(F)c(F)c2)C1 [Example 447] | < 100 nM
COCCN1C[C@@H](NC(=O)Nc2c(Cl)c(CCOC(C)=O)nn2-c2ccccc2)[C@H](c2ccc(F)c(F)c2)C1 [Example 448, 2-(4-chloro-5-(3-((3S,4R)-4-(3,4-difluorophenyl)-1-(2-methoxyethyl)pyrrolidin-3-yl)ureido)-1-phenyl-1H-pyrazol-3-yl)ethyl acetate] | < 100 nM
COCCN1C[C@@H](NC(=O)Nc2c(Cl)c(CCO)nn2-c2ccccc2)[C@H](c2ccc(F)c(F)c2)C1 [Example 449, 1-(4-chloro-3-(2-hydroxyethyl)-1-phenyl-1H-pyrazol-5-yl)-3-((3S,4R)-4-(3,4-difluorophenyl)-1-(2-methoxyethyl)pyrrolidin-3-yl)urea] | < 100 nM
COCCN1C[C@@H](NC(=O)Nc2c(C)c([C@H]3C[C@@H](O)C3)nn2-c2ccccc2)[C@H](c2ccc(F)c(F)c2)C1 [Example 450, 1-((3S,4R)-4-(3,4-difluorophenyl)-1-(2-methoxyethyl)pyrrolidin-3-yl)-3-(3-(cis-3-hydroxycyclobutyl)-4-methyl-1-phenyl-1H-pyrazol-5-yl)urea] | < 100 nM
COCCN1C[C@@H](NC(=O)Nc2c(C)c([C@H]3C[C@H](O)C3)nn2-c2ccccc2)[C@H](c2ccc(F)c(F)c2)C1 [Example 451, 1-((3S,4R)-4-(3,4-difluorophenyl)-1-(2-methoxyethyl)pyrrolidin-3-yl)-3-(3-(trans-3-hydroxycyclobutyl)-4-methyl-1-phenyl-1H-pyrazol-5-yl)urea] | < 100 nM
COCCN1C[C@@H](NC(=O)Nc2c(Cl)c([C@H]3C[C@@H](O)C3)nn2-c2ccccc2)[C@H](c2ccc(F)c(F)c2)C1 [Example 452, 1-(4-chloro-3-(cis-3-hydroxvcyclobutyl)-1-phenyl-1H-pyrazol-5-yl)-3-((3S,4R)-4-(3,4-difluorophenyl)-1-(2-methoxyethyl)pyrrolidin-3-yl)urea] | < 100 nM
COCCN1C[C@@H](NC(=O)Nc2c(Cl)c([C@H]3C[C@H](O)C3)nn2-c2ccccc2)[C@H](c2ccc(F)c(F)c2)C1 [Example 453, 1-(4-chloro-3-((1r,3S)-3-hydroxycyclobutyl)-1-phenyl-1H-pyrazol-5-yl)-3-(trans-4-(3,4-difluorophenyl)-1-(2-methoxyethyl)pyrrolidin-3-yl)urea] | < 100 nM
COCCN1C[C@@H](NC(=O)Nc2c(C)c([C@H]3C[C@@H](O)C3)nn2-c2ccccc2)[C@H](c2ccc(F)cc2)C1 [Example 454, 1-((3S,4R)-4-(4-fluorophenyl)-1-(2-methoxyethyl)pyrrolidin-3-yl)-3-(3-(cis-3-hydroxycyclobutyl)-4-methyl-1-phenyl-1H-pyrazol-5-yl)urea] | < 100 nM
COCCN1C[C@@H](NC(=O)Nc2c(C)c([C@H]3C[C@H](O)C3)nn2-c2ccccc2)[C@H](c2ccc(F)cc2)C1 [Example 455, 1-((3S,4R)-4-(4-fluorophenyl)-1-(2-methoxyethyl)pyrrolidin-3-yl)-3-(3-(trans-3-hydroxycyclobutyl)-4-methyl-1-phenyl-1H-pyrazol-5-yl)urea] | < 100 nM
COCCN1C[C@@H](NC(=O)Nc2c(C)c([C@H]3C[C@@H](O)C3)nn2-c2ccccc2)[C@H](c2cc(F)cc(F)c2)C1 [Example 456, 1-((3S,4R)-4-(3,5-difluorophenyl)-1-(2-methoxyethyl)pyrrolidin-3-yl)-3-(3-(cis-3-hydroxycyclobutyl)-4-methyl-1-phenyl-1H-pyrazol-5-yl)urea] | < 100 nM
COCCN1C[C@@H](NC(=O)Nc2c(C)c([C@H]3C[C@H](O)C3)nn2-c2ccccc2)[C@H](c2cc(F)cc(F)c2)C1 [Example 457, 1-((3S,4R)-4-(3,5-difluorophenyl)-1-(2-methoxyethyl)pyrrolidin-3-yl)-3-(3-(trans-3-hydroxycyclobutyl)-4-methyl-1-phenyl-1H-pyrazol-5-yl)urea] | < 100 nM
COCCN1C[C@@H](NC(=O)Nc2c(C)c(C(=O)O)nn2-c2ccccc2)[C@H](c2ccc(F)c(F)c2)C1 [Example 458, 5-(3-((3S,4R)-4-(3,4-difluorophenyl)-1-(2-methoxyethyl)pyrroidin-3-yl)ureido)-4-methyl-1-phenyl-1H-pyrazole-3-carboxylic acid] | 100 to 1000 nM
CNC(=O)c1nn(-c2ccccc2)c(NC(=O)N[C@@H]2CN(CCOC)C[C@H]2c2ccc(F)c(F)c2)c1C [Example 459, 5-(3-((3S,4R)-4-(3,4-difluorophenyl)-1-(2-methoxyethyl)pyrrolidin-3-yl)ureido)-N,4-dimethyl-1-phenyl-1H-pyrazole-3-carboxamide] | < 100 nM
COCCN1C[C@@H](NC(=O)Nc2c(C)c(C(=O)N(C)C)nn2-c2ccccc2)[C@H](c2ccc(F)c(F)c2)C1 [Example 460, 5-(3-((3S,4R)-4-(3,4-difluorophenyl)-1-(2-methoxyethyl)pyrrolidin-3-yl)ureido)-N,N,4-trimethyl-1-phenyl-1H-pyrazole-3-carboxamide] | < 100 nM
CCNC(=O)c1nn(-c2ccccc2)c(NC(=O)N[C@@H]2CN(CCOC)C[C@H]2c2ccc(F)c(F)c2)c1C [Example 461, 5-(3-((3S,4R)-4-(3,4-difluorophenyl)-1-(2-methoxyethyl)pyrrolidin-3-yl)ureido)-N-ethyl-4-methyl-1-phenyl-1H-pyrazole-3-carboxamide] | < 100 nM
COCCN1C[C@@H](NC(=O)Nc2c(C)c(C(=O)NC(C)C)nn2-c2ccccc2)[C@H](c2ccc(F)c(F)c2)C1 [Example 462, 5-(3-((3S,4R)-4-(3,4-difluorophenyl)-1-(2-methoxyethyl)pyrrolidin-3-yl)ureido)-N-isopropyl-4-methyl-1-phenyl-1H-pyrazole-3-carboxamide] | < 100 nM
COCCN1C[C@@H](NC(=O)Nc2c(C)c(C(N)=O)nn2-c2ccccc2)[C@H](c2ccc(F)c(F)c2)C1 [Example 463, 5-(3-((3S,4R)-4-(3,4-difluorophenyl)-1-(2-methoxyethyl)pyrrolidin-3-yl)ureido)-4-methyl-1-phenyl-1H-pyrazole-3-carboxamide] | < 100 nM

Source: patent US10323022B2, “Pyrrolidinyl urea, pyrrolidinyl thiourea and pyrrolidinyl guanidine compounds as TrkA kinase inhibitors” (Array BioPharma Inc., priority 2011, dated 2019)
